# Assay results reported in patent publication US6967196B1, “Sulfonamide compounds and uses thereof” (Bristol-Myers Squibb Company, priority 1999, dated 2005).
# Structures can show the parent of a compound that is named as a salt. Where two headings read alike, the source gives them in different places.
# Test system: amyloid β production in transfected H4 (human neuroglioma) cells stably expressing APP constructs
# Experiment: In vitro cell-based assay of inhibitors of amyloid β production (ELISA)
# Conditions: amyloid β in medium by ELISA
# In short: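 H4 neuroglioma cells stably expressing APP constructs were dosed in fresh medium, screened initially at 10-100 μM, and incubated ~16 h. Medium Aβ was measured by ELISA with C-terminal-epitope capture and N-terminal detection antibodies, quantified from a standard curve, with dose-response testing of actives.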
# [1] = transfected H4 cells stably expressing APP, approximately 16 hours incubation, read-out: ACTIVITY (IC50, inhibition of amyloid β production)
# [2] = Homo sapiens, 16 h, transfected H4 cells expressing APP, approximately 16 hours incubation, read-out: ACTIVITY (IC50, inhibition of amyloid β production)
# [3] = transfected H4 cells stably expressing APP, approximately 16 hours incubation, Table B, read-out: ACTIVITY (IC50, inhibition of amyloid β production)
# [4] = Homo sapiens, 16 h, transfected H4 cells stably expressing APP, approximately 16 hours incubation, read-out: ACTIVITY (IC50, inhibition of amyloid β production)
# [5] = Homo sapiens, 16 h, transfected H4 cells stably expressing APP constructs, approximately 16 hours incubation, read-out: ACTIVITY (IC50, inhibition of amyloid β production)
# [6] = transfected H4 cells stably expressing APP, approx. 16 h incubation, read-out: ACTIVITY (IC50, inhibition of amyloid β production)
# [7] = transfected H4 cells stably expressing APP constructs, approximately 16 hours incubation, read-out: ACTIVITY (IC50, inhibition of amyloid β production)
# [8] = Homo sapiens, 16 h, transfected H4 cells stably expressing APP, approx. 16 h incubation, read-out: ACTIVITY (IC50, inhibition of amyloid β production)
# [9] = Homo sapiens, 16 h, transfected H4 cells stably expressing APP, approximately 16 hours incubation, Table B, read-out: ACTIVITY (IC50, inhibition of amyloid β production)
molecule,measurement,setting,value
3-(2-{[(phenylsulfonyl)anilino]methyl}phenyl)propanoic acid [Example 993],IC50,[1],> 500 nM
"methyl [{2-[2-(1-{[(4-chlorophenyl)sulfonyl]-2,5-difluoroanilino}ethyl)phenoxy]ethyl}(methyl)amino](oxo)acetate [Example 929]",IC50,[1],> 500 nM
"CC(c1ccccc1OCCCN(C)C(=O)Oc1ccccc1)N(c1cc(F)ccc1F)S(=O)(=O)c1ccc(Cl)cc1 (stereo not drawn) [Example 826, phenyl 3-[2-(1-{[(4-chlorophenyl)sulfonyl]-2,5-difluoroanilino}ethyl)phenoxy]propyl(methyl)carbamate]",IC50,[1],100 to 500 nM
C[C@H](C(=O)N(CCN)c1ccc([N+](=O)[O-])cn1)N(c1cc(Cl)ccc1F)S(=O)(=O)c1ccc(Cl)cc1 [Example 1354],IC50,[2],> 500 nM
"O=C1CCN(CCCOc2ccccc2CN(c2ccccc2)S(=O)(=O)c2ccc(Cl)cc2)CC1 [Example 307, 4-Chloro-N-{2-[3-(4-oxo-1-piperidinyl)propoxy]benzyl}-N-phenylbenzenesulfonamide Hydrochloride]",IC50,[3],50 to 100 nM
"O=S(=O)(c1ccc(Cl)cc1)N(Cc1ccccc1OCCCN1CCC(CO)CC1)c1ccccc1 [Example 922, 4-chloro-N-(2-{3-[4-(hydroxymethyl)-1-piperidinyl]propoxy}benzyl)-N-phenylbenzenesulfonamide hydrochloride]",IC50,[4],> 500 nM
"C#Cc1ccccc1CN(c1ccccc1)S(=O)(=O)c1ccc(Cl)cc1 [Example 991, 4-chloro-N-(2-ethynylbenzyl)-N-phenylbenzenesulfonamide]",IC50,[4],> 500 nM
"COC(=O)NCCC[C@@H](C)N(c1cc(Cl)ccc1Cl)S(=O)(=O)c1ccc(Cl)cc1 [Example 1131, 4-chloro-N-(2,5-dichlorophenyl)-N-[4-[[(methoxy)carbonyl]amino]-1-methylbutyl]benzenesulfonamide]",IC50,[5],50 to 100 nM
"2,4-dichloro-N-{3-[2-(1-{[(4-chlorophenyl)sulfonyl]-2,5-difluoroanilino}ethyl)phenoxy]propyl}-5-fluoro-N-methylbenzamide [Example 750]",IC50,[6],100 to 500 nM
"S-methyl 4-[2-(1-{3-[2-(1-{[(4-chlorophenyl)sulfonyl]-2,5-difluoroanilino}ethyl)phenoxy]butyl(ethyl)thiocarbamate [Example 714]",IC50,[6],100 to 500 nM
"CCN(CCCn1ccnc1)C(=O)OC[C@@H](C)N(c1cc(Cl)ccc1Cl)S(=O)(=O)c1ccc(Cl)cc1 [Example 1247, 4-Chloro-N-(2,5-dichlorophenyl)-N-[2-[[[N′-[3-(1H-imidazol-1-yl)propyl]-N′-ethylamino]carbonyl]oxy]-(R)-1-methylethyl]benzenesulfonamide]",IC50,[7],≤ 25 nM
"O=[N+]([O-])c1ccc([S+]([O-])CCCOc2ccccc2CN(c2cc(F)ccc2F)S(=O)(=O)c2ccc(Cl)cc2)cc1 (stereo not drawn) [Example 689, 4-chloro-N-(2,5-difluorophenyl)-N-(2-{3-[(4-nitrophenyl)sulfinyl]propoxy}benzyl)benzenesulfonamide]",IC50,[8],100 to 500 nM
O=S(=O)(c1ccc(Cl)cc1)N(Cc1ccccc1OCCC[N+]1([O-])CCCCC1)c1cc(Cl)ccc1Cl [Example 506],IC50,[3],100 to 500 nM
"C[C@H](COC(=O)NCCCn1ccnc1)N(c1cc(Cl)ccc1F)S(=O)(=O)c1ccc(Cl)cc1 [Example 1244, 4-Chloro-N-(2-fluoro-5-chlorophenyl)-N-[2-[[N′-[3-(1H-imidazol-1-yl)propylamino]carbonyl]oxy]-(R)-1-methylethyl]benzenesulfonamide]",IC50,[7],≤ 25 nM
"O=S1(=O)c2cccc3cccc(c23)N1Cc1ccccc1OCCCN1CCCCC1 [Example 269, 2-{2-[3-(1-piperidinyl)propoxy]benzyl}-2H-naphtho[1,8-cd]isothiazole 1,1-Dioxide Hydrochloride]",IC50,[3],25 to 50 nM
"4-chloro-N-{3-[2-(1-{[(4-chlorophenyl)sulfonyl]-2,5-difluoroanilino}ethyl)phenoxy]propyl}-N-methyl-2-nitrobenzamide [Example 636]",IC50,[6],100 to 500 nM
"CNC(=O)CCCOc1ccccc1C(C)N(c1cc(F)ccc1F)S(=O)(=O)c1ccc(Cl)cc1 (stereo not drawn) [Example 378, 4-[2-(1-{[(4-Chlorophenyl)sulfonyl]-2,5-difluoroanilino}ethyl)phenoxy]-N-methylbutanamide]",IC50,[3],50 to 100 nM
(2E)-1-N-(benzyloxy)-3-[2-({[(4-chlorophenyl)sulfonyl]anilino}methyl)phenyl]-2-propenamide hydrochloride [Example 1093],IC50,[7],> 10000 nM
"C[C@H](CCCS(=O)(=O)N1CCCC1)N(c1cc(Cl)ccc1F)S(=O)(=O)c1ccc(Cl)cc1 [Example 1205, 4-chloro-N-(5-chloro-2-fluorophenyl)-N-[4-[(1-pyrrolidinyl)sulfonyl]-1(R)-methylbutyl]benzenesulfonamide]",IC50,[5],≤ 25 nM
"N-{4-[2-(1-{[(4-chlorophenyl)sulfonyl]-2,5-difluoroanilino}ethyl)phenoxy]butyl}-N,2,4-trimethylpentanamide [Example 700]",IC50,[6],100 to 500 nM
"CC(C)(C)[Si](C)(C)OCCCCCO [Example 1, (S)-5-[[dimethyl(1,1-dimethylethyl)silyl]oxy]-1-pentanol]",IC50,"Table B, transfected H4 cells stably expressing APP, approximately 16 hours incubation, read-out: ACTIVITY (inhibitory concentration IC50, inhibition of amyloid β production)",≤ 25 nM
"ethyl (2R)-2-{[(4-chlorophenyl)sulfonyl]-2,5-difluoroanilino}propanoate [Example 1060]",IC50,[1],> 500 nM
"N-{4-[2-(1-{[(4-chlorophenyl)sulfonyl]-2,5-difluoroanilino}ethyl)phenoxy]butyl}-N-ethylacrylamide [Example 739]",IC50,[6],100 to 500 nM
C[C@H](C(=O)NCCc1ccc(F)cc1)N(c1cc(Cl)ccc1F)S(=O)(=O)c1ccc(Cl)cc1 [Example 1326],IC50,[2],> 500 nM
"C[C@H](CCCS(=O)(=O)N(C)C)N(c1cc(Cl)ccc1Cl)S(=O)(=O)c1ccc(Cl)cc1 [Example 1201, 4-chloro-N-[2,5-dichlorophenyl]-N-[4-[(dimethylamino)sulfonyl]-1(R)-methylbutyl]benzenesulfonamide]",IC50,[5],≤ 25 nM
"O=C(c1ccc2c(c1)OCO2)N1CCCCC1CCOc1ccccc1CN(c1cc(F)ccc1F)S(=O)(=O)c1ccc(Cl)cc1 (stereo not drawn) [Example 921, N-(2-{2-[1-(1,3-benzodioxol-5-ylcarbonyl)-2-piperidinyl]ethoxy}benzyl)-4-chloro-N-(2,5-difluorophenyl)benzenesulfonamide]",IC50,[4],> 500 nM
"O=[N+]([O-])c1ccc(CN(Cc2ccccc2OCCCN2CCCCC2)S(=O)(=O)c2ccc(Cl)cc2)cc1 [Example 998, 4-chloro-N-(4-nitrobenzyl)-N-{2-[3-(1-piperidinyl)propoxy]benzyl}benzenesulfonamide hydrochloride]",IC50,[4],> 500 nM
"C[Si](C)(C)C#Cc1ccccc1CN(c1ccccc1)S(=O)(=O)c1ccc(Cl)cc1 [Example 1087, 4-chloro-N-phenyl-N-{2-[(trimethylsilyl)ethynyl]benzyl}benzenesulfonamide]",IC50,"Homo sapiens, transfected H4 cells stably expressing APP constructs, approximately 16 hours incubation, read-out: ACTIVITY (IC50, inhibition of amyloid β production)",> 10000 nM
"C[C@H](c1ccccc1CCC(=O)NC1CCCc2ccccc21)N(c1cc(F)ccc1F)S(=O)(=O)c1ccc(Cl)cc1 (stereo partly drawn) [Example 406, 3-[2-((1R)-1-{[(4-chlorophenyl)sulfonyl]-2,5-difluoroanilino}ethyl)phenyl]-N-(1,2,3,4-tetrahydro-1-naphthalenyl)propanamide]",IC50,[9],50 to 100 nM
"CCN(CCOc1ccccc1C(C)N(c1cc(F)ccc1F)S(=O)(=O)c1ccc(Cl)cc1)C(=O)NC(C)C (stereo not drawn) [Example 725, 4-chloro-N-(2,5-difluorophenyl)-N-{1-[2-(2-{ethyl[(isopropylamino)carbonyl]amino}ethoxy)phenyl]ethyl}benzenesulfonamide]",IC50,[8],100 to 500 nM
"CC(C)CCCN(Cc1ccccc1OCCCN1CCCCC1)S(=O)(=O)c1ccc(Cl)cc1 [Example 951, 4-chloro-N-(4-methylpentyl)-N-{2-[3-(1-piperidinyl)propoxy]benzyl}benzenesulfonamide hydrochloride]",IC50,[4],> 500 nM
"CC(NC(=O)OCCc1cc(F)ccc1[C@@H](C)N(c1cc(F)ccc1F)S(=O)(=O)c1ccc(Cl)cc1)c1ccccc1 (stereo partly drawn) [Example 385, 2-[2-((1R)-1-{[(4-chlorophenyl)sulfonyl]-2,5-difluoroanilino}ethyl)-5-fluorophenyl]ethyl 1 phenylethylcarbamate]",IC50,[9],50 to 100 nM
"O=C(c1ccc(-c2ccccc2)cc1)N1CCCCC1CCOc1ccccc1CN(c1cc(F)ccc1F)S(=O)(=O)c1ccc(Cl)cc1 (stereo not drawn) [Example 845, N-(2-{2-[1-([1,1′-biphenyl]-4-ylcarbonyl)-2-piperidinyl]ethoxy}benzyl)-4-chloro-N-(2,5-difluorophenyl)benzenesulfonamide]",IC50,[4],100 to 500 nM
